The text below walks through data of patent US20260109690A1, “HDAC6 INHIBITORS AND METHOD OF THEIR USE” (Baerenkraft Therapeutics, LLC., priority 2024, published 2026).

A short description of data set [1]: ALS mouse model: bioanalysis of plasma, brain and CSF. The class given is in vivo, mice. The conditions noted are these: 4-hour timepoint, after week 16. How it is done: At 16 weeks (9+7-week behavioral assessment), animals were dosed either with the vehicle or test compound and 4 hours post dosing, CSF, blood, and brain were collected for bioanalysis. Muscles (tibialis, soleus and gastrocnemius) and spinal cord were collected for histology (optional).
After completion of week 16 (9+7-week behavioral assessment), animals were dosed with the vehicle or test compound. 4 hours post dosing, CSF and blood (retro-orbitally) were collected under mild isoflurane anesthesia. Blood was centrifuged at 5000 rpm for 10 minutes at 4° C. and separated plasma was utilized for plasma drug concentration analysis. Then animals were euthanized, and brain tissue was collected. CSF, plasma and brain tissue samples from G3 and G4 were prepared for bioanalysis and compounds were extracted, and the supernatant was injected for LC-MS/MS bioanalysis. Drug concentration of compound I-8 was calculated from respective calibration curve for G3 and G4.

The nature of data set [2]: ALS mouse model: clinical signs & mortality. The format is in vivo. Conditions: G4 30 mg/kg (50 mg/kg from day 34) p.o. QD; SOD1-G93A mice. How it is done:
Male mice and age-matched control mice were procured. All animals were quarantine for 7 days and acclimatized for one day prior to experiment initiation. During this period, the animals were observed daily for clinical signs.
Mice were weighed and randomized into different groups and age matched control groups were kept as such. Test compound I-8 was freshly formulated and administered to the respective animals of each group as per body weight. Animals in G1 and G2 were administered with vehicle. G3 and G4 group animals were dosed with compound I-8 at the dose of 15 mg/kg and 30 mg/kg respectively, per orally; Q.D. G4 animals were administered 30 mg/kg dose until day 34 and 50 mg/kg from day 35 onwards.
Cage-side observations were made to detect any changes and general activity of the animals. After dose administration, all the animals were observed carefully for treatment related clinical signs, including morbidity and mortality.

Data set [3] deals with B6SJL.SOD1-G93A transgenic mouse model of amyotrophic lateral sclerosis. Briefly: Pre-clinical ALS mouse model efficacy: motor behavior. The format is in vivo, mice. The conditions noted are these: both doses (G3 and G4), week 10 until week 16. How it is done: Effect of test compound I-8 in Cyagen, male B6SJL.SOD1-G93A 9-week-old transgenic mouse model of amyotrophic lateral sclerosis
Compound I-8 effect was evaluated in Cyagen, Male B6SJL.SOD1-G93A 9-week-old mice, an animal model of amyotrophic lateral sclerosis.

Data set [4] can be described thus: Tg2576 study: bioanalysis. The class given is in vivo, mice. The source says:
At termination, animals were given a final dose, and under mild anesthesia, blood was collected retro-orbitally and separated plasma were utilized for bio analysis (G3) and ex vivo analysis. Then animals were euthanized under CO2 asphyxiation and brain tissue was collected and divided into two equal hemispheres. One hemisphere was fixed in 10% NBF for immunohistochemistry and from another hemisphere, dissected cortex and hippocampus was utilized for ex vivo analysis.
At the end of the experiment, animals in group G3 were dosed with the test compound, blood was collected under mild anesthesia, and separated plasma was utilized for drug bioanalysis by LC-MS/MS.

Data set [5] has as its system Tg2576 AD Disease Mice. Briefly: Tg2576 study: open field test. The conditions noted are these: for Open Field Test time spent in Central zone / Open Field Test time spent in Peripheral zone: G3 Tg2576 mice. The class given is in vivo. The protocol:
(§1) Mice were weighed and randomized into groups. All the test formulations were freshly administered to respective animals of each group as per body weight. Basal behavior of the animals was recorded and analyzed in open field, Y-Maze, and EPM. Post basal behavior, animals were treated with compound I-16 for the duration of 3 months (i.e., from 6 months until 9 months). During the treatment duration, animals were subjected to different behavioral tests such as OFT, Y-maze, and EPM at 7, 8 and 9 months. At the end of experiments (i.e., at 9 months) animals were subjected to Morris water maze test.
Prior to the treatment initiation at […], animals were subjected to open field test. […] The total distance travelled, and velocity were quantified using an automated video tracking software Ethovision XT for the duration of 10 minutes. A camera, located directly above the centre of the open field, records the session. Locomotor activities were expressed as the total distance travelled and velocity.

Data set [6] has as its system Tg2576 AD Disease Mice. Put plainly: Tg2576 study: Y-maze test. The conditions noted are these: for # of Spontaneous Alterations (Y-Maze) / % Spontaneous Alterations (Y-Maze): G3 Tg2576 mice. The format is in vivo. The protocol: as §1
To test spatial working memory, animals were subjected to spontaneous alteration test in Y-maze (Arm length—57 cm). During the test, the animal was placed at the end of one arm and allowed to explore the arena for a duration of 10 minutes. During the testing session, the number of entries in each arm were recorded and % alterations were calculated.
% Spontaneous alteration=(Spontaneous alteration/Total Arm entries−2)×100

A short description of data set [7]: Tg2576 study: body weight. Conditions: G3 Tg2576 mice, 50 mg/kg (80 mg/kg from day 36) p.o., in g (unit assumed). The class given is in vivo. The protocol: Compound I-16 (free base; purity of 98.77%) was tested in a vehicle of PEG 400 (30%), Tween 80 (2%), and water (68%) at a concentration of […]. Dose formulations were prepared every day prior to dose administration. Oral dosages of 50 mg/kg were used unless otherwise indicated. 80 mg/kg doses were similarly prepared at a concentration of 8 mg/mL Male mice aged 6 months were used. 30 total animals were used with 10 animals in each group and 3 groups total. Groups were separated according to the following parameters.
as §1

Where [8] appears, read: G4 50 mg/kg p.o. (30 mg/kg until day 33).
[9] abbreviates: G3 Tg2576 AD disease mice, 50 mg/kg.
[10] abbreviates: 50 mg/kg then 80 mg/kg from day 36 p.o., 8th months.
The mark [11] stands for this setting: 50 mg/kg then 80 mg/kg from day 36 p.o., 9th months.
Setting [12] is: 6th months (Basal, before treatment).

With `CC1CN(Cc2ccc(Nc3nccc(-c4ccc(C(=O)NO)cc4)n3)cc2F)CCO1` (racemic) [Compound I-8, 4-(2-((3-fluoro-4-((2-methylmorpholino)methyl)phenyl)amino)pyrimidin-4-yl)-N-hydroxybenzamide], in data set [1] (G3 15 mg/kg p.o.), the “Brain drug concentration (Mean)” value is 2.34 and the “Plasma drug concentration (Mean)” value is given as 12.35. Besides, in data set [1] (setting [8]), the “Brain drug concentration (Mean)” value was 3.87, the “CSF drug concentration (Mean)” value is given as 2.70 and the “Plasma drug concentration (Mean)” value came to 136.15. Besides, the mortality entry in data set [2] is “two mortalities”. Further, the “motor behavior compared to disease control group” value in data set [3] is given as “Improvement was observed in motor behavior”.

For the molecule `C[C@@H]1CN(Cc2ccc(Nc3nccc(-c4ccc(C(=O)NO)cc4)n3)cc2F)CCO1` [Compound I-16, (R)-4-(2-((3-fluoro-4-((2-methylmorpholino)methyl)phenyl)amino)pyrimidin-4-yl)-N-hydroxybenzamide], the “Brain Conc (ng/mL)” value in data set [4] (G3 Tg2576 mice, end of experiment, 9 hr post dose) was “No Peak”. The “plasma concentration time course” value in data set [4] (G3 mice bled at different time points after the water maze test) is “time course dependent decrease”. In data set [4] (male, mouse, plasma, oral, G3 Tg2576 mice, end of experiment, 2 hr post dose, read-out: Plasma Concentrations), the concentration at 2 h was found to be 106 ± 13.8 ng/mL. Also, the concentration at 4 h in data set [4] (male, mouse, plasma, oral, G3 Tg2576 mice, end of experiment, 4 hr post dose, read-out: Plasma Concentrations) was determined as 32.6 ± 4.75 ng/mL. For the same molecule, in data set [4] (male, mouse, plasma, oral, G3 Tg2576 mice, end of experiment, 6 hr post dose, read-out: Plasma Concentrations), the concentration at 6 h was 19 ± 4.16 ng/mL. The concentration at 8 h in data set [4] (male, mouse, plasma, oral, G3 Tg2576 mice, end of experiment, 8 hr post dose, read-out: Plasma Concentrations) turned out to be 12.1 ± 2.1 ng/mL. The “Open Field Test: total distance, velocity, time spent in central and peripheral zone compared to G2 (Tg2576 + vehicle)” value with Tg2576 AD Disease Mice [5] (setting [9]) was “did not show any significant difference”. The “Open Field Test time spent in Central zone” value with Tg2576 AD Disease Mice [5] (50 mg/kg p.o., 7th months) is listed as 25.12 ± 12.39; with Tg2576 AD Disease Mice [5] (setting [10]) it was 79.09 ± 28.86; with Tg2576 AD Disease Mice [5] (setting [11]), 61.69 ± 12.36; in the data set on Tg2576 AD Disease Mice [5] (setting [12]) it was 57.11 ± 12.95. Also, the “Open Field Test time spent in Peripheral zone” value with Tg2576 AD Disease Mice [5] (50 mg/kg p.o., 7th months) came out at 574.88 ± 12.39; with Tg2576 AD Disease Mice [5] (setting [10]), 520.91 ± 28.86; in the data set on Tg2576 AD Disease Mice [5] (setting [11]) it was 538.31 ± 12.36; in the data set with Tg2576 AD Disease Mice [5] (setting [12]), 537.81 ± 12.63. Moreover, the “Y Maze: number of spontaneous alterations compared to G2 (Tg2576 + vehicle)” value in the data set on Tg2576 AD Disease Mice [6] (setting [9]) is listed as “did not show any significant difference”. The “# of Spontaneous Alterations (Y-Maze)” value came to 18.70 ± 6.96 in the data set with Tg2576 AD Disease Mice [6] (50 mg/kg p.o., 7th months); 16.00 ± 2.59 in the data set on Tg2576 AD Disease Mice [6] (setting [10]); 16.00 ± 2.48 in the data set with Tg2576 AD Disease Mice [6] (setting [11]); 25.00 ± 5.19 with Tg2576 AD Disease Mice [6] (setting [12]). Further, the “% Spontaneous Alterations (Y-Maze)” value was determined as 57.59 ± 3.85% in the data set on Tg2576 AD Disease Mice [6] (50 mg/kg p.o., 7th months); 41.65 ± 5.52% with Tg2576 AD Disease Mice [6] (setting [10]); 43.66 ± 4.55% in the data set on Tg2576 AD Disease Mice [6] (setting [11]); 53.60 ± 3.25% in the data set with Tg2576 AD Disease Mice [6] (setting [12]). Besides, the Body weight in data set [7] (Day 0) is 28.08 ± 0.84; in data set [7] (Day 4), 27.31 ± 0.52; in data set [7] (Day 7), 26.85 ± 0.66; in data set [7] (Day 14) it was 28.27 ± 0.87; in data set [7] (Day 21), 27.65 ± 0.86; in data set [7] (Day 28) it was 28.23 ± 1.02. Further, the Body weight was found to be 28.88 ± 0.55 in data set [7] (Day 35); 28.35 ± 0.63 in data set [7] (Day 42); 28.76 ± 0.76 in data set [7] (Day 49); 27.77 ± 0.67 in data set [7] (Day 56); 28.72 ± 1.03 in data set [7] (Day 63); 29.54 ± 0.72 in data set [7] (Day 70). Also, the Body weight in data set [7] (Day 77) was found to be 29.16 ± 0.71; in data set [7] (Day 84), 29.14 ± 0.86; in data set [7] (Day 91), 29.41 ± 0.78.
